The text below walks through data of PubChem BioAssay AID2060618 (Molecular Pharmacology Branch, DTP, NCI, 2025).

Values joined by “and” are separate entries in the source; they are usually repeats but may differ in a detail not shown here. Identical values can stand only once.

For orientation: viability, T/C means the result in the treated group divided by that in the control group, in per cent. The term IC50 denotes the point on the concentration scale where inhibition reaches its midpoint.

The subject of the experiment is 454973-116-R2-J3-PDC spheroids, percent test/control viability. Kind of experiment: Anticancer human tumor 454973-116-R2-J3-PDC patient-derived pancreatic carcinoma cell line growth inhibition [CLK]. The conditions noted are these: spheroids with HUVEC and MSC; for viability, T/C: stronger effect = lower value; for IC50: curve of compound. From the text: A high-throughput screen of multi-cell type tumor spheroids was designed to identify active combinations of […] and targeted small molecules. Complex spheroids include a stromal component modeled by human endothelial cells (HUVEC) and fibroblasts modeled by human mesenchymal stem cells (MSCs). The concentration ranges selected for each drug and investigational agent were based upon clinically achievable concentrations if the clinical Cmax of the agent was known.
Compounds. The drugs and investigational agents: cirtuvivint (SM08502; NSC835563), CC-671 (NSC850746), vemurafenib (NSC761431), tapotoclax (NSC804041), sotorasib (NSC818433), adagrasib (NSC831453), MRTX-1133 (NSC836407), BAY2416964 (NSC825713), copanlisib (NSC816437), inavolisib (NSC800729), abemaciclib (NSC768073), osimertinib (NSC779217), entinostat (NSC756642), eltanexor (KPT-8602, NSC794443), venetoclax (NSC766270), ceralasertib (NSC777638), bortezomib (NSC756655), olaparib (NSC753686), talazoparib (NSC767125), alisertib (NSC759677), peposertib (NSC802822), gemcitabine (NSC613327), 5-fluorouracil (NSC19893), SN-38 (NSC673596), oxaliplatin (NSC266046), paclitaxel (NSC125973), and doxorubicin (NSC123127), were obtained from the National Cancer Institute (NCI) Developmental Therapeutics Program Chemical Repository. The FDA-approved anticancer drug set is available from the Developmental Therapeutics Program at https://dtp.cancer.gov/organization/dscb/obtaining/available plates.htm. […] The stock solutions were prepared in dimethyl sulfoxide (DMSO, Sigma-Aldrich, St. Louis, MO, cat. D2650), except for the platinum complexes which were prepared in saline (Quality Biological, Gaithersburg, MD, cat. 114-055-101), at 800-fold the tested concentration and stored at -70 degrees C prior to their use. All drugs and investigational agents were tested over a range starting from a high concentration at or near the clinical Cmax and decreasing in half-log increments. If the clinical Cmax for an agent had not been determined, the highest concentration tested was 10 microM.
Cell Culture. All cells were maintained in an incubator at 37 degrees C and 5% CO2 with 95% humidity. The PDC lines were cultured according to standard operating procedures established by the NCI PDMR. Briefly, all PDCs were thawed and cultured in Matrigel-coated flasks prepared with a working solution of 1X Ham's F-12 nutrient mix, without supplementation (Invitrogen, Waltham, MA, cat. 11765054), 100 U/mL penicillin-streptomycin (Invitrogen, cat. 15140122), and 2.5% Matrigel (Corning Inc., Corning, NY, cat. 354248) for the first three passages. The 947758-054-R-J2-PDC line was cultured in 6B/Colon 1A media, which includes advanced DMEM/F-12 (Thermo Fisher Scientific, cat. 12634028), 10 mM HEPES (Thermo Fisher Scientific, cat. 15630080), 1X GlutaMAX supplement (Thermo Fisher Scientific, cat. 35050061), 0.1 mg/mL primocin (InvivoGen, cat. ant-pm-2), 10% defined fetal bovine serum, heat inactivated (HyClone Laboratories Inc., cat. SH30070.03HI), 1.25 mM N-Acetyl-L-cysteine (Sigma-Aldrich, cat. A9165), 10 mM nicotinamide (Sigma-Aldrich, cat. N0636), 1X B-27 supplement (Thermo Fisher Scientific, cat. 17504044), 1X N-2 supplement (Thermo Fisher Scientific, cat. 17502048), and 10 microM Y-27632 dihydrochloride (Tocris Bioscience, cat. 1254). The 876862-298-R-J1-PDC was cultured in 6E media, which includes all 6B/Colon 1A media components plus 50% L-WRN conditioned media (ATCC, cat. CRL-3276), 50 ng/mL recombinant human EGF recombinant protein (hEGF; Thermo Fisher Scientific, cat. PHG0311), 10 ng/mL recombinant human fibroblast growth factor 10 (hGFG-10; PeproTech, cat. 100-26), 1 ng/mL recombinant human fibroblast growth factor 2 (hFGF-2; PeproTech, cat. 100-18B), and 1 µM prostaglandin E2 (PGE2; Tocris, cat. 2296). The 227483-062-R1-J1-PDC line was cultured in Panc media, containing all 6E components except hFGF-2, with the addition of 500 nM SB-431542 (Selleckchem, cat. S1067) and 10 nM gastrin (Tocris, cat. 3006). […]
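Further: spheroids exposed to compounds for 7 days before readout.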

`C#Cc1c(F)ccc2cc(O)cc(-c3ncc4c(N5CC6CCC(C5)N6)nc(OCC56CCCN5CC(F)C6)nc4c3F)c12` (centres undefined): the IC50 is 0.0558 µM and 0.0435 µM. In addition, under “compound 0.0316 µM”, the viability, T/C is 57% and 54.6%. The viability, T/C (compound 0.1 µM) was 43.1% and 39.1%. Further, the viability, T/C (compound 0.316 µM) is 33.8% and 39.8%. Further, the viability, T/C (compound 1 µM) is 29.4% and 31.3%. For the same compound, under “compound 3.16 µM”, the viability, T/C is 30.1% and 29.4%. In addition, the viability, T/C (compound 10 µM) was 22.2% and 18.5%.

Regarding `C=C(F)C(=O)N1CCN(c2nc(OCC3CCCN3C)nc3c2CCN(c2cccc4cccc(Cl)c24)C3)CC1CC#N` (centres undefined), the IC50 is 5.77 µM and 5.78 µM. In addition, the viability, T/C (compound 0.0316 µM) is 105% and 106%. For the setting “compound 0.1 µM”, the viability, T/C was 102% and 107%. Further, for the setting “compound 0.316 µM”, the viability, T/C is 110% and 114%. Also, the viability, T/C (compound 1 µM) is 93.8% and 109%. Where the note is “compound 3.16 µM”, the viability, T/C was 104% and 105%. Also, the viability, T/C (compound 10 µM) is 1.39% and 0.39%.

`C=CC(=O)N1CCN(c2nc(=O)n(-c3c(C)ccnc3C(C)C)c3nc(-c4c(O)cccc4F)c(F)cc23)C(C)C1` (centres undefined): the concentration for half-maximal inhibition (IC50) was over 10 µM. Besides, the viability, T/C (compound 0.0316 µM) is 107% and 99.3%. The viability, T/C (compound 0.1 µM) is 107% and 106%. The viability, T/C (compound 0.316 µM) is 107% and 105%. The viability, T/C (compound 1 µM) is 110% and 97.4%. Further, under “compound 3.16 µM”, the viability, T/C is 124% and 116%. Besides, under “compound 10 µM”, the viability, T/C is 124% and 118%.

Take `CC(=O)O[C@H]1C(=O)[C@@]2(C)[C@H]([C@H](OC(=O)c3ccccc3)[C@]3(O)C[C@H](OC(=O)[C@H](O)[C@@H](NC(=O)c4ccccc4)c4ccccc4)C(C)=C1C3(C)C)[C@]1(OC(C)=O)CO[C@@H]1C[C@@H]2O`: the half-inhibitory concentration (IC50) is under 0.0316 µM. Also, for the setting “compound 0.0316 µM”, the viability, T/C was 5.98% and 7.51%. Also, for the setting “compound 0.1 µM”, the viability, T/C is 6.42% and 5.84%. For the same compound, the viability, T/C (compound 0.316 µM) was 4.95% and 6.85%. Under “compound 1 µM”, the viability, T/C is 5.57% and 6.35%. Further, the viability, T/C (compound 3.16 µM) was 7.38% and 11.4%. Further, the viability, T/C (compound 10 µM) was 16% and 15.4%.

As for `CC(CO)NC(=O)c1cc(-c2ccc(Cl)cc2)nn(-c2cnn(C)c2)c1=O` (centres undefined), the IC50 is over 10 µM. For the same compound, for the setting “compound 0.0316 µM”, the viability, T/C is 112% and 99.4%. Besides, the viability, T/C (compound 0.1 µM) is 106% and 92.4%. For the setting “compound 0.316 µM”, the viability, T/C is 114% and 111%. In addition, the viability, T/C (compound 1 µM) was 99.3% and 107%. Further, the viability, T/C (compound 3.16 µM) was 103% and 109%. In addition, the viability, T/C (compound 10 µM) is 71.3% and 79%.

With `CC(Nc1ccc2c(c1)OCCn1cc(N3C(=O)OCC3C(F)F)nc1-2)C(N)=O` (centres undefined), the IC50 is > 10 µM and 8.31 µM. Moreover, the viability, T/C (compound 0.0316 µM) is 98.3% and 101%. In addition, the viability, T/C (compound 0.1 µM) was 95.5% and 92.3%. For the same compound, the viability, T/C (compound 0.316 µM) was 99.5% and 84%. Besides, the viability, T/C (compound 1 µM) is 84.7% and 86.1%. Further, for the setting “compound 3.16 µM”, the viability, T/C was 78.1% and 71%. Further, the viability, T/C (compound 10 µM) was 54.1% and 45%.

Turning to `CC1(C)CCC(CN2CCN(c3ccc(C(=O)NS(=O)(=O)c4ccc(NCC5CCOCC5)c([N+](=O)[O-])c4)c(Oc4cnc5[nH]ccc5c4)c3)CC2)=C(c2ccc(Cl)cc2)C1`, the 50% inhibitory concentration (IC50) was 7.15 µM and 6.67 µM. The viability, T/C (compound 0.0316 µM) is 101% and 99.6%. For the same compound, the viability, T/C (compound 0.1 µM) is 102% and 95.9%. Moreover, where the note is “compound 0.316 µM”, the viability, T/C was 113% and 106%. The viability, T/C (compound 1 µM) was 106% and 102%. Where the note is “compound 3.16 µM”, the viability, T/C is 119% and 111%. For the same compound, the viability, T/C (compound 10 µM) is 25.8% and 21.3%.
